Source: article PMC7822874, “Chemoprotective antimalarials identified through quantitative high-throughput screening of Plasmodium blood and liver stage parasites” (Scientific Reports, 2021)
Like-named read-outs stand apart in the source and are kept apart here.

What was measured:
in vitro = details: human, HepG2-A16-CD81EGFP cells, uninfected
[1] = system: P. berghei-ANKA-GFP-LucCON liver stage parasites in HepG2-A16-CD81EGFP cells; assay: P. berghei liver stage Pb-Luc assay, Method 1 (UCSD, 1536-well); type: cell-based, Plasmodium berghei; details: Method 1
[2] = system: Plasmodium falciparum Dd2 asexual blood stage parasites; assay: microbe, parasite or virus in culture; design: species or system Plasmodium falciparum Dd2 in human erythrocytes; single determination (one 11-point concentration-response curve); details: Plasmodium falciparum, DD2, Erythrocyte, 72 h; read-out: AC50

CCCC(=O)Nc1sc2c(c1C(=O)Nc1ccccn1)CCCC2 [MLS000765104-01] showed a viability at 66 h (in vitro) of 101%.
In the case of COc1ccc(C2CC(c3cccs3)=NN2C(=O)c2ccco2)cc1OC (centres unmarked) [MLS000769739-01], the viability at 66 h (in vitro) is reported as 101%.
Work on Cc1n[nH]c(=S)n(/N=C/c2cccs2)c1=O [MLS000780118-01] yielded a viability at 66 h (in vitro) of 98.7%.
For O=C(Cc1c[nH]c2ncc(-c3ccc(Cl)cc3)cc12)NCc1cccnc1 [NCGC00412438-01], the “Max Resp (signal direction of the dose response)” value ([1]; Decrease = decreasing P. berghei viability with dose, Increase = increasing signal, Inactive = no dose response) was “Decrease”, the AC50 ([1]; Hill fit, 50% of maximum activity response, read-out: AC50) was 2 µM and the “Log AC50 (M)” value ([1]; log10 of molar AC50 from Hill fit) was -5.700 M. For the same compound, the AC50 ([1]; Plasmodium berghei, Hill fit, 50% of maximum activity response, read-out: AC50) was 1.26 µM, the AC50 ([1]; Plasmodium berghei, log10 of molar AC50 from Hill fit, read-out: Log AC50 (converted)) was 1.26 µM and the AC50 [2] was 1.72 µM.
Work on N#CC1CCN(C(=O)c2nc(-c3cccc(C(F)(F)F)c3)c3cnccn23)CC1 [NCGC00476479-01] yielded an AC50 [2] of 16.8 µM.
CC(=O)Nc1ccc(CN2CC(N(C)c3ccccc3C)C2)cc1 [NCGC00476647-01] gave an AC50 [2] of 12.2 µM.
With Cc1ccccc1N(C)C1CN(Cc2ccc(C#N)cc2)C1 [NCGC00476680-01] the AC50 [2] was 3.85 µM.
With Cc1ccccc1N(C)C1CN(Cc2ccccc2)C1 [NCGC00476681-01] the AC50 [2] was 19.3 µM.
Compound Fc1ccc(OC2CN(CC3CCCCC3)C2)cc1F [NCGC00476687-01] has an AC50 [2] of 17.2 µM.
Compound Cc1cc(OC2CN([S+](=O)([O-])c3cccs3)C2)ccc1F [NCGC00476695-01] has an AC50 [2] of 15.3 µM.
O=C1CC2(CCN(Cc3ccccc3)CC2)Oc2ccccc21 [NCGC00476829-01] gave an AC50 [2] of 13.7 µM.
In the case of O=C1CC2(CCN(Cc3cccs3)CC2)Oc2cc(Cl)ccc21 [NCGC00476854-01], the AC50 [2] is reported as 5.31 µM.
O=C1CC2(CCN(CC3CCCCC3)CC2)Oc2cc(Cl)ccc21 [NCGC00476867-01] gave an AC50 [2] of 1.5 µM.
In the case of O=C1Nc2ccccc2CC12CCN2Cc1ccccn1 (centres unmarked) [NCGC00477299-01], the AC50 [2] is reported as 4.33 µM.
In the case of O=C1NC2(CCN(Cc3ccc(C(F)(F)F)cc3)CC2)COc2ccccc21 [NCGC00477447-01], the AC50 [2] is reported as 8.41 µM.
With CN(C)c1ccc(CN2CCC3(CC2)COc2ccccc2C(=O)N3)cc1 [NCGC00477464-01] the AC50 [2] was 2.66 µM.
O=C1NC2(CCN(C(=O)c3ccc(C(F)(F)F)cc3)CC2)COc2ccccc21 [NCGC00477468-01] showed an AC50 [2] of 8.41 µM.
For c1ccc2c(c1)CNC1(CCN(Cc3cccc4ccccc34)CC1)CO2 [NCGC00477546-01], the AC50 [2] was 7.5 µM.
With O=C(c1ccccc1F)N1CCC2(CC1)COc1ccccc1CN2 [NCGC00477550-01] the AC50 [2] was 4.33 µM.
With COc1ccc(C(=O)N2CCC3(CC2)COc2ccccc2CN3)cc1 [NCGC00477552-01] the AC50 [2] was 10.6 µM.
O=C(c1ccc2c(c1)OCO2)N1CCC2(CC1)COc1ccccc1CN2 [NCGC00477555-01] gave an AC50 [2] of 5.31 µM.
For O=c1nc(C2CCCN(CC3CCCCC3)C2)[nH]n1-c1ccc(Cl)cc1 (centres unmarked) [NCGC00477729-01], the AC50 [2] was 6.68 µM.
Work on O=c1nc(C2CCCN(Cc3ccccn3)C2)[nH]n1-c1ccc(Cl)cc1 (centres unmarked) [NCGC00477746-01] yielded an AC50 [2] of 2.37 µM.
Cc1ccc([S+](=O)([O-])N2CCC3(CCN(Cc4cccs4)c4ccccc4O3)CC2)cc1 [NCGC00478057-01] showed an AC50 [2] of 18.8 µM.
For CCOc1ccccc1CN1CCC2(CCN(CCC(C)C)CC2)Oc2ccccc21 [NCGC00478188-01], the AC50 [2] was 3.35 µM.
Work on O=C(Nc1ccc(Cl)cc1)N1CCC2(CC1)CCN(Cc1cccs1)c1ccccc1O2 [NCGC00478210-01] yielded an AC50 [2] of 8.41 µM.
Compound O=C1CC2(CCN([S+](=O)([O-])c3cccc(C(F)(F)F)c3)CC2)Oc2ccccc2N1c1ccccc1 [NCGC00478390-01] has an AC50 [2] of 6.68 µM.
In the case of O=C1NCN(Cc2ccc(Cl)cc2)C12CCN(CC1CC1)CC2 [NCGC00478768-01], the AC50 [2] is reported as 9.68 µM.
Compound CC(C)CCN1CCn2c(nn(-c3ccc([N+](=O)[O-])cc3)c2=O)C1 [NCGC00479600-01] has an AC50 [2] of 17.2 µM.
Work on COc1ccccc1CN1CCn2c(nn(-c3ccc([N+](=O)[O-])cc3)c2=O)C1 [NCGC00479607-01] yielded an AC50 [2] of 5.96 µM.
For Cc1nc2c(c(-c3ccc(O)cc3)n1)CN(Cc1ccc(C(F)(F)F)cc1)CCC2 [NCGC00480263-01], the AC50 [2] was 4.22 µM.
CC(C)c1nc2c(c(-c3ccc(O)cc3)n1)CN(Cc1cccc(F)c1)CC2 [NCGC00480376-01] showed an AC50 [2] of 9.44 µM.
Work on Oc1ccc(-c2nc(C3CC3)nc3c2CN(CC2CCCCC2)CC3)cc1 [NCGC00480438-01] yielded an AC50 [2] of 6.68 µM.
